# Data from PubChem BioAssay (NCI).
#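 Step 1: Grow cells in 96-well plates. Step 2: Expose to compound for 48 hours at 5 concentrations. Step 3: Interpolate endpoints linearly; if unreached, use highest concentration. GI50 is the concentration that inhibits growth by half. At the TGI there is no net growth.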
# What was measured:
# Assay in all cases: NCI-60 cell line screen, 48 h
# HT29 colon = system: HT29 colon
# SF-295 CNS = system: SF-295 CNS
# M14 melanoma = system: M14 melanoma
# HCC-2998 colon = system: HCC-2998 colon
# SF-268 CNS = system: SF-268 CNS
# 786-0 renal = system: 786-0 renal
# OVCAR-5 ovarian = system: OVCAR-5 ovarian
# DU-145 prostate = system: DU-145 prostate
# A498 renal = system: A498 renal
# T-47D breast = system: T-47D breast
# UACC-257 melanoma = system: UACC-257 melanoma
# NCI-H522 lung = system: NCI-H522 lung
# SF-539 CNS = system: SF-539 CNS
# HCT-116 colon = system: HCT-116 colon
# COLO 205 colon = system: COLO 205 colon
# TK-10 renal = system: TK-10 renal
# SW-620 colon = system: SW-620 colon
# LOX IMVI melanoma = system: LOX IMVI melanoma
# OVCAR-4 ovarian = system: OVCAR-4 ovarian
# HL-60(TB) leukemia = system: HL-60(TB) leukemia
# MDA-MB-231 breast = system: MDA-MB-231 breast
# MDA-MB-468 breast = system: MDA-MB-468 breast
# NCI-H226 lung = system: NCI-H226 lung
# SK-MEL-5 melanoma = system: SK-MEL-5 melanoma
# BT-549 breast = system: BT-549 breast
# SNB-19 CNS = system: SNB-19 CNS
# IGROV1 ovarian = system: IGROV1 ovarian
# CAKI-1 renal = system: CAKI-1 renal
# SNB-75 CNS = system: SNB-75 CNS
# A549 NSCLC = system: A549 NSCLC
compound,measurement,setting,value
C/C(=N\N=C1/C(=O)Nc2ccc(Cl)cc21)c1ccc2c(c1)Nc1ccccc1S2,GI50,HT29 colon,4.54 µM
same,TGI,HT29 colon,17.6 µM
same,GI50,SF-295 CNS,4.08 µM
same,TGI,SF-295 CNS,17 µM
same,GI50,M14 melanoma,7.35 µM
same,TGI,M14 melanoma,23.3 µM
same,GI50,HCC-2998 colon,7.54 µM
same,TGI,HCC-2998 colon,22.5 µM
same,GI50,SF-268 CNS,8.19 µM
same,TGI,SF-268 CNS,26.5 µM
same,GI50,786-0 renal,2.4 µM
same,TGI,786-0 renal,5.86 µM
same,GI50,OVCAR-5 ovarian,10.1 µM
same,TGI,OVCAR-5 ovarian,26.2 µM
same,GI50,DU-145 prostate,4.64 µM
same,TGI,DU-145 prostate,18 µM
same,GI50,A498 renal,5.89 µM
same,TGI,A498 renal,18.7 µM
same,GI50,T-47D breast,2.54 µM
same,TGI,T-47D breast,12.8 µM
same,GI50,UACC-257 melanoma,4.07 µM
same,TGI,UACC-257 melanoma,18.1 µM
same,GI50,NCI-H522 lung,3.22 µM
same,TGI,NCI-H522 lung,15.3 µM
same,GI50,SF-539 CNS,6.83 µM
same,TGI,SF-539 CNS,19.8 µM
same,GI50,HCT-116 colon,4.6 µM
same,TGI,HCT-116 colon,19 µM
same,GI50,COLO 205 colon,4.84 µM
same,TGI,COLO 205 colon,17.2 µM
same,GI50,TK-10 renal,7.07 µM
same,TGI,TK-10 renal,23.7 µM
same,GI50,SW-620 colon,5.56 µM
same,TGI,SW-620 colon,20.1 µM
same,GI50,LOX IMVI melanoma,5.77 µM
same,TGI,LOX IMVI melanoma,18.7 µM
same,GI50,OVCAR-4 ovarian,4.67 µM
same,TGI,OVCAR-4 ovarian,22.5 µM
same,GI50,HL-60(TB) leukemia,6.21 µM
same,TGI,HL-60(TB) leukemia,> 100 µM
same,GI50,MDA-MB-231 breast,8.23 µM
same,TGI,MDA-MB-231 breast,21.9 µM
same,GI50,MDA-MB-468 breast,1.8 µM
same,TGI,MDA-MB-468 breast,7.31 µM
same,GI50,NCI-H226 lung,3.49 µM
same,TGI,NCI-H226 lung,19.7 µM
same,GI50,SK-MEL-5 melanoma,3.8 µM
same,TGI,SK-MEL-5 melanoma,14.4 µM
same,GI50,BT-549 breast,3.47 µM
same,TGI,BT-549 breast,12.3 µM
same,GI50,SNB-19 CNS,11.9 µM
same,TGI,SNB-19 CNS,33.1 µM
same,GI50,IGROV1 ovarian,5.62 µM
same,TGI,IGROV1 ovarian,23.1 µM
same,GI50,CAKI-1 renal,4.42 µM
same,TGI,CAKI-1 renal,17.9 µM
same,GI50,SNB-75 CNS,4.28 µM
same,TGI,SNB-75 CNS,19.4 µM
same,GI50,A549 NSCLC,4.21 µM
